According to US6281214A, “Biphenyl derivatives” (Eisai Co., Ltd, priority 1994, dated 2001):

What was measured:
[1] = background, cited from earlier work; for extrapyramidal syndrome as adverse reaction: D2 receptor antagonists
adrenergic α1 receptor = adrenergic α1 receptor binding test ([3H] Prazosin Binding Test); parameters: species or system SD rats; conditions: 1 nM [3H] Prazosin, rat cortex, room temperature, 60 minutes
Summary of the method: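 Rat (SD, 6-8 weeks) cerebral cortex membranes in 50 mM Tris-HCl pH 7.4 incubated with 1 nM [3H]prazosin for 60 min at room temperature; nonspecific binding defined with phentolamine. IC50 by probit method, converted to Ki using radioligand concentration and Scatchard-derived Kd.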

dopamine D2 receptor = biological target: T1, dopamine D2 receptor (Rattus norvegicus, UniProt P61169); test: dopamine D2 receptor binding test ([3H] Spiperone Binding Test); parameters: species or system SD rats; conditions: 1 nM [3H] Spiperone, rat corpus striatum, room temperature, 60 minutes; read-out: Ki value, dopamine D2 receptor
T1 construct: the receptor fraction prepared from the corpus striatum was molten and suspended; from tissue; host or cells: corpus striatum of SD rats (membrane fraction)
Summary of the method: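 Rat (SD, 6–8 weeks) corpus striatum membranes in 50 mM Krebs-Tris pH 7.4 were incubated with 1 nM [3H]spiperone at room temperature for 60 minutes, with nonspecific binding defined by excess spiperone. IC50 came from probit analysis; Ki was derived using radioligand concentration and Scatchard Kd.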

serotonin S2 receptor = biological target: T2, serotonin S2 receptor (Rattus norvegicus, UniProt P14842); test: serotonin S2 receptor binding test ([3H] Ketanserin Binding Test); parameters: species or system SD rats; conditions: 1 nM [3H] Ketanserin, rat cortex, 37° C., 15 minutes
T2 construct: The receptor fraction prepared from the cortex was molten and suspended; from tissue; host or cells: cerebral cortex of SD rats (membrane fraction)
Summary of the method: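 Rat (SD, 6–8 weeks) cortical membranes in 50 mM Tris-HCl pH 7.4 were incubated with 1 nM [3H]ketanserin for 15 min at 37 °C, then filtered and counted. Nonspecific binding was defined with methysergide. IC50 was obtained by probit analysis and converted to Ki using the Scatchard-derived Kd.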

T1 sequence (P61169 whole entry): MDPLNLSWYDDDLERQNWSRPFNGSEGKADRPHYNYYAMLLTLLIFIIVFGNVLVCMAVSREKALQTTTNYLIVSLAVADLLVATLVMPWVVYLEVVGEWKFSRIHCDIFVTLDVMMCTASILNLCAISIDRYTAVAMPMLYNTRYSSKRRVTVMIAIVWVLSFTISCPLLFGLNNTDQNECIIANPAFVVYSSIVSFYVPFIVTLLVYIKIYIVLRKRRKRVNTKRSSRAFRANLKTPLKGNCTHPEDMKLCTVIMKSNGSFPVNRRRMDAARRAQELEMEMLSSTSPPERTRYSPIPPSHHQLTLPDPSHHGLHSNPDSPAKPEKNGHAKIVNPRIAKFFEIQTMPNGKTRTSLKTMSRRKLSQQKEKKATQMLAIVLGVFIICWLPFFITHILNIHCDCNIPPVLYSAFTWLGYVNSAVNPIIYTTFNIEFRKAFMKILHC
T2 sequence (P14842 whole entry): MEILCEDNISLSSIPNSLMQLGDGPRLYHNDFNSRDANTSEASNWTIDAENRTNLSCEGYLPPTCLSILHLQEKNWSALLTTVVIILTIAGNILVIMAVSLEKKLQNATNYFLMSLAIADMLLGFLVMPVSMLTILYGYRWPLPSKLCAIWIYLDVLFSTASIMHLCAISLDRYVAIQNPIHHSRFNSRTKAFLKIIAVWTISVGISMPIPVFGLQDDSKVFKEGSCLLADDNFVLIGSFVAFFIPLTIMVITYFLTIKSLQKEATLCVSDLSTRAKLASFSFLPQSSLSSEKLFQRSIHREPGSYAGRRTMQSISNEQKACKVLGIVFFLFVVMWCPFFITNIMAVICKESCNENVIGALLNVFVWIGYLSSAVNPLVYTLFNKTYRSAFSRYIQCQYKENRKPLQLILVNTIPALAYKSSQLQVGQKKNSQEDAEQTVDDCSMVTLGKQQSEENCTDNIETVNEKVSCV

Compound	extrapyramidal syndrome as adverse reaction [1]	blood-pressure drop as adverse reaction ([1]; owing to high α1 blocking activity)	QTC interval in electrocardiogram [1]	Ki (adrenergic α1 receptor) [nM]	Ki (dopamine D2 receptor) [nM]	Ki (serotonin S2 receptor) [nM]
O=C(CCCN1CCC(O)(c2ccc(Cl)cc2)CC1)c1ccc(F)cc1 [haloperidol]	causing extrapyramidal syndrome					
CCN(CC)CCNC(=O)c1cc(S(C)(=O)=O)ccc1OC [Tiapride]	causing extrapyramidal syndrome					
Cc1nc2n(c(=O)c1CCN1CCC(c3noc4cc(F)ccc34)CC1)CCCC2 [Risperidone, risperidone]		blood-pressure drop occurs as an adverse reaction	lengthened to induce arrhythmia			
CCC(CC)c1cc(N2CCN(CC)CC2)cc(-c2ccccc2C)c1Cl [Example 157, 1-Ethyl-4-[3-(2-tolyl)-4-chloro-5-(1-ethylpropyl)]phenylpiperazine]				> 1000	7.26	74.4
CCCNS(=O)(=O)c1cc(N2CCN(CC)CC2)cc(-c2ccccc2C)c1Cl [Example 161, 1-Ethyl-4-[3-(2-tolyl)-4-chloro-5-propylaminosulfonyl]phenylpiperazine]				776	9.8	22.5
CCN1CCN(c2cc(-c3ccccc3)c(OC)c(S(=O)(=O)CCC#N)c2)CC1 [Example 183, 1-Ethyl-4-[3-phenyl-4-methoxy-5-(2-cycanoethylsulfonyl)]phenylpiperazine]				> 1000	165	81.2
CCC(F)c1cc(N2CCN(CC)CC2)cc(-c2ccc(F)cc2C)c1Cl (stereo not shown) [Example 142, 1-Ethyl-4-{3-[2-(4-fluorotolyl)]-4-chloro-5-(1-fluoropropyl)}phenylpiperazine]				653	1.77	20.5
CCN1CCN(c2cc(-c3ccc(F)cc3)c(OC)c(C(C)C)c2)CC1 [Example 78, 1Ethyl-4-[3-(4-fluorophenyl)-4-methoxy-5-isopropyl]phenylpiperazine]				74.8	4.22	33.2
CCCS(=O)(=O)c1cc(N2CCN(CC)CC2)cc(-c2ccccc2C)c1Cl [Example 159, 1-Ethyl-4-[3-(2-tolyl)-4-chloro-5-propanesulfonyl]phenylpiperazine]				596	3.93	8.81
CCC(C)c1cc(N2CCN(CC)CC2)cc(-c2ccccc2)c1Cl (stereo not shown) [Example 147, 1-Ethyl-4-[3-phenyl-4-chloro-5-(1-methylpropyl)]phenylpiperazine]				33.2	0.45	15.1
O=C(Cc1ccccc1)c1cc(N2CCNCC2)cc(-c2ccccc2)c1O [Example 118, 1-(3-Phenyl-4-hyroxy-5-phenylaectyl)phenylpiperazine]				> 1000	149	468
